Read-outs that look alike come from different tables or passages of the source.
How the values were obtained:
Assay type in all cases: biochemical
kinases [1] = target: kinases (Homo sapiens, UniProt O00141); conditions: SGK (SGK1) FRET-Z-Lyte SP; Test Conc(μM):ATP Conc(μM) 1:25
kinases [2] = target: kinases (Homo sapiens, UniProt O75116); conditions: ROCK2 FRET-Z-Lyte SP; Test Conc(μM):ATP Conc(μM) 1:50
kinases [3] = target: kinases (Homo sapiens, UniProt O95819); conditions: MAP4K4 (HGK) FRET-Z-Lyte SP; Test Conc(μM):ATP Conc(μM) 1:10
kinases [4] = target: kinases (Homo sapiens, UniProt P16234); conditions: PDGFRA *Mn* FRET-Z-Lyte SP; Test Conc(μM):ATP Conc(μM) 1:10
kinases [5] = target: kinases (Homo sapiens, UniProt P23458); conditions: JAK1 FRET-Z-Lyte SP; Test Conc(μM):ATP Conc(μM) 1:75
kinases [6] = target: kinases (Homo sapiens, UniProt P29323); conditions: EPHB2 FRET-Z-Lyte SP; Test Conc(μM):ATP Conc(μM) 1:75
kinases [7] = target: kinases (Homo sapiens, UniProt P37173); conditions: TGFBR2 FRET-Lantha SP; Test Conc(μM) 1
kinases [8] = target: kinases (Homo sapiens, UniProt P41279); conditions: MAP3K8 (COT) Cascade Z-Lyte SP; Test Conc(μM):ATP Conc(μM) 1:100
kinases [9] = target: kinases (Homo sapiens, UniProt P51617); conditions: IRAK1 FRET-Adapta SP; Test Conc(μM):ATP Conc(μM) 1:25
Chain of kinases (Homo sapiens, UniProt P51617) (P51617 whole entry): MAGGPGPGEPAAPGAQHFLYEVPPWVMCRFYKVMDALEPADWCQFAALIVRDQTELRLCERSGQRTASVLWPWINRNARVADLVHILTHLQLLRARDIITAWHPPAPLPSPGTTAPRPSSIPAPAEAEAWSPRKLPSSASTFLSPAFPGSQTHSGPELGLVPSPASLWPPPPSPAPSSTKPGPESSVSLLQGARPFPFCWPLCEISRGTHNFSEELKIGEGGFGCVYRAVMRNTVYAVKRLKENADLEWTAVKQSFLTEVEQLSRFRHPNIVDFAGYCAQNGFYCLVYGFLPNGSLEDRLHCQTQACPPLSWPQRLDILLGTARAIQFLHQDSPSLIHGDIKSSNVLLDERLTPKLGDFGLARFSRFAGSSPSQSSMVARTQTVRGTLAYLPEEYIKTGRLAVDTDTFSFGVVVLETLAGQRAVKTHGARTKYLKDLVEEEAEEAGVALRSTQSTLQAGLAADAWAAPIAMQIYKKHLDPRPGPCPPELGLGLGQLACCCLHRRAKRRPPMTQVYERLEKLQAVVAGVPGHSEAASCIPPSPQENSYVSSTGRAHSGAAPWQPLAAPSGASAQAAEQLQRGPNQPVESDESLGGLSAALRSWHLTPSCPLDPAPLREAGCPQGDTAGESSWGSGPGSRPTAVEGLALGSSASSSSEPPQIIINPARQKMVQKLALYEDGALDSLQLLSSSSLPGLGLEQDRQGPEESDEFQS

kinases [10] = target: T1, kinases (Homo sapiens, UniProt P52564)
T1 sequence (P52564 1-334): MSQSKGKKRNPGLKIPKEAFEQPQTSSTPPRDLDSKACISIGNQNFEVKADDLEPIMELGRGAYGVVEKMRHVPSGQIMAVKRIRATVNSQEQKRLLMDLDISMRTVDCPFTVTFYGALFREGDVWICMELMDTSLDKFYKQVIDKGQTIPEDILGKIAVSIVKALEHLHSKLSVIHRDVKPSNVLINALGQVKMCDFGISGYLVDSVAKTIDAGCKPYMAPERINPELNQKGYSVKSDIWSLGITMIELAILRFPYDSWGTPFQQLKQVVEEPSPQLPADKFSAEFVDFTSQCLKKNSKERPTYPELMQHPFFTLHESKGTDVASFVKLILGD

kinases [11] = target: kinases (Homo sapiens, UniProt Q02750)
Chain of kinases (Homo sapiens, UniProt Q02750) (Q02750 whole entry): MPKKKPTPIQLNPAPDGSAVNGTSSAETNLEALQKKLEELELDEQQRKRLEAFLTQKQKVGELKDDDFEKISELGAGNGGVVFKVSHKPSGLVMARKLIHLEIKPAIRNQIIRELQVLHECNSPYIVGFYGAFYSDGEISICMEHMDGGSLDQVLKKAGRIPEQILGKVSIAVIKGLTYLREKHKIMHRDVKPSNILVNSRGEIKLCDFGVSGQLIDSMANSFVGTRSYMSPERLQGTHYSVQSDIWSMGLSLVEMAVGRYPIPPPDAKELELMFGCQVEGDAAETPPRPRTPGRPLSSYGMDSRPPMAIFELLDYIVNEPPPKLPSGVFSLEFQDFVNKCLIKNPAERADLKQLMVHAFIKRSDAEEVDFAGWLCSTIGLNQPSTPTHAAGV

kinases [12] = target: kinases (Homo sapiens, UniProt Q14012); conditions: CAMK1 (CaMK1) FRET-Adapta SP; Test Conc(μM):ATP Conc(μM) 1:10
kinases [13] = target: kinases (Homo sapiens, UniProt Q15208); conditions: STK38 FRET-Lantha SP; Test Conc(μM) 1
Chain of kinases (Homo sapiens, UniProt Q15208) (Q15208 whole entry): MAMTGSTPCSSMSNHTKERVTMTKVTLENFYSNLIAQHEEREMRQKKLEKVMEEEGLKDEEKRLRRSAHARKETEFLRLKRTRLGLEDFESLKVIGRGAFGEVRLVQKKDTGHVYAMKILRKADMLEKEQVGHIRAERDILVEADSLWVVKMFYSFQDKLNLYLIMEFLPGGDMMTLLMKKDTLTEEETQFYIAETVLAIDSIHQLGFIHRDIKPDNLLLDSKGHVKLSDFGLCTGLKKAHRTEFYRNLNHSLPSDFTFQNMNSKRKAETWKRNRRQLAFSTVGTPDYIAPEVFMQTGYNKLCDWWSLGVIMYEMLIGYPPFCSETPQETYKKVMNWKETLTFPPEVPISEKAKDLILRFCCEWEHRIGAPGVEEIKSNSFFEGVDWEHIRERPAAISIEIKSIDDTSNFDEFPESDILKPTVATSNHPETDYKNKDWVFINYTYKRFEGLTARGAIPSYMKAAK

kinases [14] = target: kinases (Homo sapiens, UniProt Q15303); conditions: ERBB4 (HER4) *Mn* Z-Lyte SP; Test Conc(μM):ATP Conc(μM) 1:5
kinases [15] = target: kinases (Homo sapiens, UniProt Q5S007)
Chain of kinases (Homo sapiens, UniProt Q5S007) (Q5S007 whole entry): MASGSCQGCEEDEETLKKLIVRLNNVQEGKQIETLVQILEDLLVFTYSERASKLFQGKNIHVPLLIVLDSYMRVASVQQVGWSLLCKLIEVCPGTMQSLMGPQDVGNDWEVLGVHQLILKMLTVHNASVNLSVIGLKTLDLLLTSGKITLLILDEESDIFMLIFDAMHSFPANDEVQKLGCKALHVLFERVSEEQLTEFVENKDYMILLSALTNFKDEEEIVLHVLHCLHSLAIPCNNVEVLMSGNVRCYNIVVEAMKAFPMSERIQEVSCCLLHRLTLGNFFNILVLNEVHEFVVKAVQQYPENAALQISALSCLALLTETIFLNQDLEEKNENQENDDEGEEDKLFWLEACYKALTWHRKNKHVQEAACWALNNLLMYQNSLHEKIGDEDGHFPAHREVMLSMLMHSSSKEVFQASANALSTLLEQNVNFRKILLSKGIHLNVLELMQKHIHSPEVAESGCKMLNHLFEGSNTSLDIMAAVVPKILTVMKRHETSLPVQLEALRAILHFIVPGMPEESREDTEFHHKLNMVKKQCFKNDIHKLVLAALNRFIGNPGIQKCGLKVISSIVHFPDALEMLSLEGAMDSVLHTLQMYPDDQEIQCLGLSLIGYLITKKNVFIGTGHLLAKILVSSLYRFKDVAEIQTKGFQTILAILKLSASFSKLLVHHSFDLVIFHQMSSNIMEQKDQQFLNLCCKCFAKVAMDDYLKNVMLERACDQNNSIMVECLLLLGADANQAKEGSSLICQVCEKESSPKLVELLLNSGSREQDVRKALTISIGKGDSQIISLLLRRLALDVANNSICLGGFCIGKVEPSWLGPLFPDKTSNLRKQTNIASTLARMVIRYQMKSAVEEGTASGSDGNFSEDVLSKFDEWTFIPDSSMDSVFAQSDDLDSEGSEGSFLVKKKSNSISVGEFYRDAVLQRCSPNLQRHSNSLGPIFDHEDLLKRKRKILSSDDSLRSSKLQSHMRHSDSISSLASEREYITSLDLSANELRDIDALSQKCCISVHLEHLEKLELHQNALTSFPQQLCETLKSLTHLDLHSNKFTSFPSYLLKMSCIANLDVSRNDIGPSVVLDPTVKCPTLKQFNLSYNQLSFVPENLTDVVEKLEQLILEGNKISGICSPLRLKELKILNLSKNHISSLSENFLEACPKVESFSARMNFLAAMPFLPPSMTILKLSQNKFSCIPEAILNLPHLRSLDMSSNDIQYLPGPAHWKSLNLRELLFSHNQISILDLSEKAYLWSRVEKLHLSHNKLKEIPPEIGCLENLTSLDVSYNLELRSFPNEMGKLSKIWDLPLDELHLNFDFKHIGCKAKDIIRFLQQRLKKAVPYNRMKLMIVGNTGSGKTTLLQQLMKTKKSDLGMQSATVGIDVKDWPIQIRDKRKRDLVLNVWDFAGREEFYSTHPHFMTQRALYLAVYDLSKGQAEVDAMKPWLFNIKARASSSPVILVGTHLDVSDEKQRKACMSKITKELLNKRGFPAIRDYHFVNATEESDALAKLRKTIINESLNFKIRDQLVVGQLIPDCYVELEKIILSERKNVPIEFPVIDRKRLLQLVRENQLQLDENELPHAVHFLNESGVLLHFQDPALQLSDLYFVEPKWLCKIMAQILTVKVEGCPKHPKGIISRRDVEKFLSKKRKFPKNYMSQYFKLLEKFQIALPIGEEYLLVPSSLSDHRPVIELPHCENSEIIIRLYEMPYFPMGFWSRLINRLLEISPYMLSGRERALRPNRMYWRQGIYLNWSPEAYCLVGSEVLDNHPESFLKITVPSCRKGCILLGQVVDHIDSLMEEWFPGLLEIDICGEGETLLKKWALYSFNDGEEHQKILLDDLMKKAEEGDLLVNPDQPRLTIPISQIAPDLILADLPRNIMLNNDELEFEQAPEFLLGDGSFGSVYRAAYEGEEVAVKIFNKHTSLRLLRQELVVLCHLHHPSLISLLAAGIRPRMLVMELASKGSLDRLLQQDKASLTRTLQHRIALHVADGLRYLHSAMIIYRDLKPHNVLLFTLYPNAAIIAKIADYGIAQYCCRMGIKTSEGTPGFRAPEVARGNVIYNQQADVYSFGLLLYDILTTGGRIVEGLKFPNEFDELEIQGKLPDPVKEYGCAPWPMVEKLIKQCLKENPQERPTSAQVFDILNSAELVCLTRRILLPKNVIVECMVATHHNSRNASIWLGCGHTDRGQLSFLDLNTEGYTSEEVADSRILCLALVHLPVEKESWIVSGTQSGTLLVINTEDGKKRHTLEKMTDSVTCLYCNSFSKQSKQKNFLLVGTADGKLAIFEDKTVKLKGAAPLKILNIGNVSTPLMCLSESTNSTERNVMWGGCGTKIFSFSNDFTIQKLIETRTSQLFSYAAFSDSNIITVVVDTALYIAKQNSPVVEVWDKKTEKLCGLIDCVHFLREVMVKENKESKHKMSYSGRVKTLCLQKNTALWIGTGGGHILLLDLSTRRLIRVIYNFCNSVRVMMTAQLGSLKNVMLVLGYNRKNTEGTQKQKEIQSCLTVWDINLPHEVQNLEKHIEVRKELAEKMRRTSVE

kinases [16] = target: kinases (Homo sapiens, UniProt Q7L7X3); conditions: TAOK1 FRET-Lantha SP; Test Conc(μM) 1
kinases [17] = target: kinases (Homo sapiens, UniProt Q86UX6); conditions: STK32C (YANK3) FRET-Lantha SP; Test Conc(μM) 1
kinases [18] = target: kinases (Homo sapiens, UniProt Q8IW41); conditions: MAPKAPK5 (PRAK) FRET-Z-Lyte SP; Test Conc(μM):ATP Conc(μM) 1:10
Chain of kinases (Homo sapiens, UniProt Q8IW41) (Q8IW41 whole entry): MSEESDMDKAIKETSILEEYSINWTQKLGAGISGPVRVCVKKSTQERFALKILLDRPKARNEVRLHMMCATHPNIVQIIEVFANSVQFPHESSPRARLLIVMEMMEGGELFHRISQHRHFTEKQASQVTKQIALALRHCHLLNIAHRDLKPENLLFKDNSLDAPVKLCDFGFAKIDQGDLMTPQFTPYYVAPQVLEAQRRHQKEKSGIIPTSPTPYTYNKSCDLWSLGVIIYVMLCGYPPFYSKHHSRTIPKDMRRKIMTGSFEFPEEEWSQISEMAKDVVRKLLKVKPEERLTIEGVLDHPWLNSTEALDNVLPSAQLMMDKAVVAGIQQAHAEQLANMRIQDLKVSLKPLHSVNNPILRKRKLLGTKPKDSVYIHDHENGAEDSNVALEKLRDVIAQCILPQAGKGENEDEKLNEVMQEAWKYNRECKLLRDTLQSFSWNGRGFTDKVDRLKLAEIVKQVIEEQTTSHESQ

kinases [19] = target: kinases (Homo sapiens, UniProt Q8IYT8); conditions: ULK2 FRET-Lantha SP; Test Conc(μM) 1
kinases [20] = target: kinases (Homo sapiens, UniProt Q8TF76); conditions: GSG2 (Haspin) FRET-Adapta SP; Test Conc(μM):ATP Conc(μM) 1:25
kinases [21] = target: kinases (Homo sapiens, UniProt Q96GX5); conditions: MASTL FRET-Lantha SP; Test Conc(μM) 1
kinases [22] = target: kinases (Homo sapiens, UniProt Q9H3Y6); conditions: SRMS (Srm) FRET-Z-Lyte SP; Test Conc(μM):ATP Conc(μM) 1:150
Chain of kinases (Homo sapiens, UniProt Q9H3Y6) (Q9H3Y6 whole entry): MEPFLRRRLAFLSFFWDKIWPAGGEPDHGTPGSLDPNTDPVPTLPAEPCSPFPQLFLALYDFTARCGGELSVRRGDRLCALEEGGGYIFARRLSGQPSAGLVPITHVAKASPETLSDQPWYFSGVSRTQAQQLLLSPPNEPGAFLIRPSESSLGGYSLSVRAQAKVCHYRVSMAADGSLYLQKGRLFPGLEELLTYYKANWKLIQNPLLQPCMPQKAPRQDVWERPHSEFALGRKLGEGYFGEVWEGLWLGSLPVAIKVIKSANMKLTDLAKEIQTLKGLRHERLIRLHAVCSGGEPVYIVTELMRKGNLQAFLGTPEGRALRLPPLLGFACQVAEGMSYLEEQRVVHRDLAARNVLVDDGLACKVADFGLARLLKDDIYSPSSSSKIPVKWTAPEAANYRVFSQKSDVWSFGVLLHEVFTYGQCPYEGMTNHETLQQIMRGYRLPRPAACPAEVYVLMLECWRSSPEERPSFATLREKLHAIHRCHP

kinases [23] = target: kinases (Homo sapiens, UniProt Q9H4B4); conditions: PLK3 FRET-Z-Lyte SP; Test Conc(μM):ATP Conc(μM) 1:50
kinases [24] = target: kinases (Homo sapiens, UniProt Q9UPZ9); conditions: ICK FRET-Lantha SP; Test Conc(μM) 1
kinases [25] = target: kinases (Homo sapiens, UniProt Q9UQM7); conditions: CAMK2A FRET-Z-Lyte SP; Test Conc(μM):ATP Conc(μM) 1:10
[26] = MAP2K6 (MKK6) FRET-Lantha SP, Test Conc(μM) 1
[27] = MAP2K6 (MKK6)Cascade Z-Lyte SP, Test Conc(μM):ATP Conc(μM) 1:100
[28] = MAP2K1 (MEK1) FRET-Lantha SP, Test Conc(μM) 1
[29] = MAP2K1 (MEK1)Cascade Z-Lyte SP, Test Conc(μM):ATP Conc(μM) 1:100
[30] = LRRK2 FL FRET-Adapta SP, Test Conc(μM):ATP Conc(μM) 1:50
[31] = LRRK2 Hu Phos FRET-Adapta SP, Test Conc(μM):ATP Conc(μM) 1:75

Row | SMILES | Mean Inhib (%) (kinases [1]) | Mean Inhib (%) (kinases [2]) | Mean Inhib (%) (kinases [3]) | Mean Inhib (%) (kinases [4]) | Mean Inhib (%) (kinases [5]) | Mean Inhib (%) (kinases [6]) | Mean Inhib (%) (kinases [7]) | Mean Inhib (%) (kinases [8]) | Mean Inhib (%) (kinases [9]) | Mean Inhib (%) (kinases [10]; [26]) | Mean Inhib (%) (kinases [10]; [27]) | Mean Inhib (%) (kinases [11]; [28]) | Mean Inhib (%) (kinases [11]; [29]) | Mean Inhib (%) (kinases [12]) | Mean Inhib (%) (kinases [13]) | Mean Inhib (%) (kinases [14]) | Mean Inhib (%) (kinases [15]; [30]) | Mean Inhib (%) (kinases [15]; [31]) | Mean Inhib (%) (kinases [16]) | Mean Inhib (%) (kinases [17]) | other results
1 | Cc1ccc(NC(=O)c2ccnc(N3CCOCC3)c2)cc1Nc1ccnc(N2CC(C)OC(C)C2)n1 (centres unmarked) [compound 3] | −7.0% | −2.1% | 16.9% | 2.4% | −1.9% | 6.1% | −3.5% | 6.1% | 11.2% | −4.9% | 21.3% | −3.2% | 20.0% | −9.9% | −9.2% | 0.8% | 0.5% | 13.2% | −6.0% | −1.0% | Mean Inhib (%) (kinases [18]): −1.3%; Mean Inhib (%) (kinases [19]): 2.6%; Mean Inhib (%) (kinases [20]): −5.6%; Mean Inhib (%) (kinases [21]): 2.3%; Mean Inhib (%) (kinases [22]): 6.2%; Mean Inhib (%) (kinases [23]): 5.8%; Mean Inhib (%) (kinases [24]): 0.3%; Mean Inhib (%) (kinases [25]): 1.0%
2 | Cc1cc(Oc2ccnc(Nc3ccc(S(N)(=O)=O)cc3)c2)c(-c2ccccn2)nc1C [compound 65] | −1.4% | 1.6% | 12.0% | 7.6% | 4.3% | 58.7% | 67.0% | 21.2% | 5.1% | 2.3% | −5.7% | −0.5% | 17.3% | 7.3% | 3.1% | 3.4% | 3.0% | 6.1% | 33.0% | 7.8% | Mean Inhib (%) (kinases [18]): 1.9%; Mean Inhib (%) (kinases [19]): −1.0%; Mean Inhib (%) (kinases [20]): −1.9%; Mean Inhib (%) (kinases [21]): 13.5%; Mean Inhib (%) (kinases [22]): 1.5%; Mean Inhib (%) (kinases [23]): −4.9%; Mean Inhib (%) (kinases [24]): 6.0%; Mean Inhib (%) (kinases [25]): −3.3%
